Test results from patent publication US20220144850A1, “INDOLO HEPTAMYL OXIME ANALOGUE AS PARP INHIBITOR” (Chia Tai Tianqing Pharmaceutical Group Co., Ltd., priority 2019, published 2022).
Where two headings read alike, the source gives them in different places.

Key:
[1] = Plasma protein binding rate, SD rat plasma (equilibrium dialysis); assay type: in vitro ADME; details: Sprague-Dawley, SD rats plasma, dialysis 4 h at 37° C.
Protocol: Experimental Example 5: Study on Plasma Protein Binding Rate
The protein binding rates of the compounds disclosed herein in plasma of human, CD-1 mice and SD rats were determined. 796 μL of blank plasma was taken from human, CD-1 mice and SD rats, and added with 4 μL of test compound working solution (400. μM) or warfarin working solution (400 μM) to achieve a final concentration of 2 μM of both the test compound and the warfarin in the plasma sample. The samples were mixed well. The final concentration of organic phase DMSO was 0.5%; 50 μL of test compound and warfarin plasma sample was pipetted into a sample receiving plate (three parallels), and a corresponding volume of blank plasma or buffer was immediately added such that the final volume of each sample well was 100 μL. The volume ratio of plasma to dialysis buffer was 1:1, and 400 μL of stop solution was added to these samples, which were used as TO samples for determination of recovery rate and stability. The TO samples were stored at 2-8° C. for subsequent treatment with other dialyzed samples; 150 μL of the test compound and warfarin plasma sample was added to a drug delivery end of each dialysis well, and 150 μL of blank dialysis buffer was added to a corresponding receiving end of the dialysis well. The dialysis plate was then sealed with a gas permeable membrane and placed in a humid, 5% CO2 incubator and incubated at 37° C. for 4 h while shaking at about 100 rpm. After the dialysis was completed, 50 μL of the dialyzed buffer sample and dialyzed plasma sample were pipetted to a new sample receiving plate. A corresponding volume of corresponding blank plasma or buffer was added to the samples such that the final volume of each sample well was 100 μL, and the volume ratio of plasma to dialysis buffer was 1:1. All samples were subjected to LC/MS analysis after protein precipitation, and the protein binding rates and the recovery rates were calculated by the following formulas: protein unbinding rate (%)=100×drug concentration passing through dialysis membrane/drug concentration not passing through dialysate; protein binding rate (%)=100−protein unbinding rate (%); recovery rate (%)=100×(drug concentration passing through dialysis membrane+drug concentration not passing through dialysate)/total drug concentration before dialysis.

PARylation = PARylation inhibition in Lovo cells (H2O2 stimulated, anti-PAR antibody); assay type: cell-based; details: Homo sapiens, 25 mM H2O2
Protocol: Experimental Example 4: Anti-Proliferation Experiment on PARylation
Experimental materials: test compounds; F12K medium; Lovo cells; Anti-Poly (ADP-ribose) mouse monoclonal antibody; FITC-labeled goat anti-mouse IgG; hydrogen peroxide; DAPI; PBS; methanol; acetone; Tween-20; skimmed milk powder; Envision multi-marker analyzer.
Day one: Lovo cells were plated on a plate at 60,000 cells/well, and then incubated overnight at 37° C./5% CO2.
Day two: reagents were prepared: • 1. Washing solution: Tween-20 was added to 1-fold PBS, and the final concentration of Tween-20 was 0.05%. • 2. Blocking solution: skimmed milk powder was added to the washing solution, and the final concentration of skimmed milk powder was 5%. • 3. Cell stationary solution: methanol and acetone were mixed in a ratio of 7:3.
Preparation of test compounds: compound intermediate plate 1: compounds were diluted to final concentrations of 10 μM to 0.13 nM with DMSO and PBS, and the concentration of DMSO was 1%. Compound intermediate plate 2: compounds were diluted to final concentrations of 10 μM to 0.13 nM with DMSO and PBS containing 50 mM hydrogen peroxide, and the concentration of DMSO was 1%.
1. Cell supernatant was removed, and compound was transferred from the compound intermediate plate 1 to the cell plate at 40 μL per well, and the mixture was incubated at 37° C. for 30 min.
Compound wells: compound, DMSO 1%;
Negative and positive controls: 1% DMSO added;
Blank controls: cell-free wells, PBS added.
2. After the incubation was completed, compound was transferred from the compound intermediate plate 2 to the cell plate at 40 μL per well, and the final concentration of H2O2 was 25 mM.
Compound wells: compound+25 mM H2O2
Positive and negative controls: 1% DMSO+25 mM H2O2
Blank controls: cell-free wells, PBS added
4. After the incubation was completed, the cell plate was washed once with PBS pre-cooled on ice and added with 100 μL of pre-cooled cell stationary solution per well. After the cell plate was left to stand at −20° C. for 10 min, the cell stationary solution was shaken off. 5. After being air-dried, the cell plate was washed with PBS at 200 μL per well, and then the PBS was discarded. 6. The cell plate was added with blocking solution at 100 μL per well and incubated at 25° C. for 30 min, after which the blocking solution was shaken off. 7. Anti-PAR antibody which was diluted in blocking solution at a ratio of 1:50, was added to the cell plate at 25 μL per well, and then the mixture was incubated at 25° C. for 60 min.
Negative control wells: blocking solution added at 25 μL/well
Blank control wells: blocking solution added at 25 μL/well
8. […] After removal of the liquid, corresponding fluorescence values were read on Envision: FITC: 480 nm and 530 nm; DAPI: 360 nm and 460 nm. […]

[2] = Single-dose pharmacokinetic study in mice; assay type: in vivo; details: male C57BL/6 mice; for Maximum concentration / bioavailability / clearance / half-life / Vd: IV: 1 mg/kg PO: 5 mg/kg; for bioavailability / clearance / half-life / Vd / AUC(0-t): mouse, plasma; for Vd: read-out: Apparent volume of distribution
Description: Experimental Example 8: Single-Dose Pharmacokinetic Study in Mice
Experimental objective: to evaluate the pharmacokinetic behavior by using male C57BL/6 mice as test animals and determining the drug concentrations of the compounds in the plasma, liver and cerebrospinal fluid after single-dose administration.
Experimental method: healthy adult male C57BL/6 mice were selected for intragastric administration. A candidate compound was mixed with an appropriate amount of 10% DMSO/90% (20% hydroxypropyl-β-cyclodextrin), vortexed and sonicated to prepare a 0.5 mg/mL clear solution for later use. After the mice were administered intravenously at 1 mg/kg and orally at 5 mg/kg, whole blood was collected at certain time points, and plasma was separated, and liver and cerebrospinal fluid were collected. After pretreatment of the samples, the drug concentration was measured by LC-MS/MS, and pharmacokinetic parameters were calculated using Phoenix WinNonlin software.

[3] = intravenous 1 mg/kg, read-out: AUC0-last (intravenous injection)
[4] = oral 5 mg/kg, read-out: AUC0-last (oral)

`O=C1NOCc2c(-c3ccc(C4CCCN4)cc3)[nH]c3cc(F)cc1c23` (single isomer, unassigned) [Example 24_A] gave a fraction unbound at 4 h, 2 μM [1] of 0.036, an IC50 (PARylation) of 23 nM and a Maximum concentration [2] of 433 nM. The bioavailability [2] was 21.2%, the clearance [2] was 34.9 mL/min/kg and the half-life [2] was 2.03 h. It also gave a Vd [2] of 4.21 L/kg, an AUC(0-t) [2, 3] of 1.3 µM·h and an AUC(0-t) [2, 4] of 1.38 µM·h.
In the case of `CC1(c2ccc(-c3[nH]c4cc(F)cc5c4c3CONC5=O)cc2)CCCN1` (stereo not drawn) [Example 25_A], the fraction unbound at 4 h, 2 μM [1] is reported as 0.077, the Maximum concentration [2] is reported as 240 nM and the bioavailability [2] is reported as 24.8%. It also gave a clearance [2] of 41 mL/min/kg, a half-life [2] of 3.02 h and a Vd [2] of 9.44 L/kg. For the same compound, the AUC(0-t) [2, 3] was 0.958 µM·h and the AUC(0-t) [2, 4] was 1.19 µM·h.
Work on `O=C1NOCc2c(-c3ccc(C4CCCN4)c(F)c3)[nH]c3cccc1c23` (stereo not drawn) [Example 11_A] yielded a fraction unbound at 4 h, 2 μM [1] of 0.035 and an IC50 (PARylation) of 27 nM.
`CC1(c2ccc(-c3[nH]c4cccc5c4c3CONC5=O)cc2)CCCN1` (stereo not drawn) [Example 6_A] gave a fraction unbound at 4 h, 2 μM [1] of 0.176 and an IC50 (PARylation) of 19 nM.
In the case of `CC1(c2ccc(-c3[nH]c4cc(F)cc5c4c3CONC5=O)cc2F)CCCN1` (single isomer, unassigned) [Example 26_A], the fraction unbound at 4 h, 2 μM [1] is reported as 0.097, the IC50 (PARylation) is reported as 25 nM and the Maximum concentration [2] is reported as 285 nM. The bioavailability [2] was 37.9%, the clearance [2] was 60.7 mL/min/kg and the half-life [2] was 2.15 h. The Vd [2] was 8.22 L/kg, the AUC(0-t) [2, 3] was 0.679 µM·h and the AUC(0-t) [2, 4] was 1.29 µM·h.
